target: DNA-dependent protein kinase catalytic subunit (Homo sapiens, UniProt P78527); assay: DNA-PK Enzyme-Linked Immunosorbent Assay
Description: On day one, coat 96-well plate (ThermoFisher. Cat #: 442404) with GST-p53 (1-101) peptide (purified by Pharmaron, BCS department) by diluting 3 μg of GST-p53 each well with 0.1 M Na2CO3/NaHCO3, pH 9.6. Incubate the plate overnight at 4° C. The second day, remove coating buffer, wash 2× with PBST (1×PBS containing 0.1% Tween-20). Then add DNA-PK enzyme solution (Invitrogen, #PR9107A; the final DNA-PK concentration is 0.1 μg/mL), series dilution compounds (the final top concentration is 100 nM, 3 fold series dilution, with total 10 doses) and ATP solution (the final ATP concentration is 20 μM) to the 96-well plate. Incubate the plate at 25° C. for 1 hour. Then wash 3× with PBST (1×PBS containing 0.1% Tween-20). Block the plate with PBST+ 1% BSA at 4° C. overnight. The third day, wash 4× with PBST (1×PBS containing 0.1% Tween-20). Then add Phospho-p53 primary antibody (cell signaling Technology, #9286, Phospho-p53 (Ser15) (16G8) Mouse mAb) (1/1000) to each well. Seal with plate and incubate the plate for 1 h at 37° C. Wash 4× with PBST (1×PBS containing 0.1% Tween-20), add 100 μL of HRP-linked secondary antibody (Cell signaling Technology, #7076, Anti-mouse IgG, HRP-linked Antibody) (1/1000) to each well. Seal with tape and incubate the plate for 30 min at 37° C. Wash 4× with PBST (1×PBS containing 0.1% Tween-20), add 100 μL of TMB (Cell signaling Technology, #7004) substrate to each well. Seal with tape and incubate the plate for 10 min at 37° C. Then add 100 μL of Stop solution (Cell signaling Technology, #7002) to each well. Read the plate at 450 nm to detect absorption.

DNA-dependent protein kinase catalytic subunit, sequence (P78527 whole entry): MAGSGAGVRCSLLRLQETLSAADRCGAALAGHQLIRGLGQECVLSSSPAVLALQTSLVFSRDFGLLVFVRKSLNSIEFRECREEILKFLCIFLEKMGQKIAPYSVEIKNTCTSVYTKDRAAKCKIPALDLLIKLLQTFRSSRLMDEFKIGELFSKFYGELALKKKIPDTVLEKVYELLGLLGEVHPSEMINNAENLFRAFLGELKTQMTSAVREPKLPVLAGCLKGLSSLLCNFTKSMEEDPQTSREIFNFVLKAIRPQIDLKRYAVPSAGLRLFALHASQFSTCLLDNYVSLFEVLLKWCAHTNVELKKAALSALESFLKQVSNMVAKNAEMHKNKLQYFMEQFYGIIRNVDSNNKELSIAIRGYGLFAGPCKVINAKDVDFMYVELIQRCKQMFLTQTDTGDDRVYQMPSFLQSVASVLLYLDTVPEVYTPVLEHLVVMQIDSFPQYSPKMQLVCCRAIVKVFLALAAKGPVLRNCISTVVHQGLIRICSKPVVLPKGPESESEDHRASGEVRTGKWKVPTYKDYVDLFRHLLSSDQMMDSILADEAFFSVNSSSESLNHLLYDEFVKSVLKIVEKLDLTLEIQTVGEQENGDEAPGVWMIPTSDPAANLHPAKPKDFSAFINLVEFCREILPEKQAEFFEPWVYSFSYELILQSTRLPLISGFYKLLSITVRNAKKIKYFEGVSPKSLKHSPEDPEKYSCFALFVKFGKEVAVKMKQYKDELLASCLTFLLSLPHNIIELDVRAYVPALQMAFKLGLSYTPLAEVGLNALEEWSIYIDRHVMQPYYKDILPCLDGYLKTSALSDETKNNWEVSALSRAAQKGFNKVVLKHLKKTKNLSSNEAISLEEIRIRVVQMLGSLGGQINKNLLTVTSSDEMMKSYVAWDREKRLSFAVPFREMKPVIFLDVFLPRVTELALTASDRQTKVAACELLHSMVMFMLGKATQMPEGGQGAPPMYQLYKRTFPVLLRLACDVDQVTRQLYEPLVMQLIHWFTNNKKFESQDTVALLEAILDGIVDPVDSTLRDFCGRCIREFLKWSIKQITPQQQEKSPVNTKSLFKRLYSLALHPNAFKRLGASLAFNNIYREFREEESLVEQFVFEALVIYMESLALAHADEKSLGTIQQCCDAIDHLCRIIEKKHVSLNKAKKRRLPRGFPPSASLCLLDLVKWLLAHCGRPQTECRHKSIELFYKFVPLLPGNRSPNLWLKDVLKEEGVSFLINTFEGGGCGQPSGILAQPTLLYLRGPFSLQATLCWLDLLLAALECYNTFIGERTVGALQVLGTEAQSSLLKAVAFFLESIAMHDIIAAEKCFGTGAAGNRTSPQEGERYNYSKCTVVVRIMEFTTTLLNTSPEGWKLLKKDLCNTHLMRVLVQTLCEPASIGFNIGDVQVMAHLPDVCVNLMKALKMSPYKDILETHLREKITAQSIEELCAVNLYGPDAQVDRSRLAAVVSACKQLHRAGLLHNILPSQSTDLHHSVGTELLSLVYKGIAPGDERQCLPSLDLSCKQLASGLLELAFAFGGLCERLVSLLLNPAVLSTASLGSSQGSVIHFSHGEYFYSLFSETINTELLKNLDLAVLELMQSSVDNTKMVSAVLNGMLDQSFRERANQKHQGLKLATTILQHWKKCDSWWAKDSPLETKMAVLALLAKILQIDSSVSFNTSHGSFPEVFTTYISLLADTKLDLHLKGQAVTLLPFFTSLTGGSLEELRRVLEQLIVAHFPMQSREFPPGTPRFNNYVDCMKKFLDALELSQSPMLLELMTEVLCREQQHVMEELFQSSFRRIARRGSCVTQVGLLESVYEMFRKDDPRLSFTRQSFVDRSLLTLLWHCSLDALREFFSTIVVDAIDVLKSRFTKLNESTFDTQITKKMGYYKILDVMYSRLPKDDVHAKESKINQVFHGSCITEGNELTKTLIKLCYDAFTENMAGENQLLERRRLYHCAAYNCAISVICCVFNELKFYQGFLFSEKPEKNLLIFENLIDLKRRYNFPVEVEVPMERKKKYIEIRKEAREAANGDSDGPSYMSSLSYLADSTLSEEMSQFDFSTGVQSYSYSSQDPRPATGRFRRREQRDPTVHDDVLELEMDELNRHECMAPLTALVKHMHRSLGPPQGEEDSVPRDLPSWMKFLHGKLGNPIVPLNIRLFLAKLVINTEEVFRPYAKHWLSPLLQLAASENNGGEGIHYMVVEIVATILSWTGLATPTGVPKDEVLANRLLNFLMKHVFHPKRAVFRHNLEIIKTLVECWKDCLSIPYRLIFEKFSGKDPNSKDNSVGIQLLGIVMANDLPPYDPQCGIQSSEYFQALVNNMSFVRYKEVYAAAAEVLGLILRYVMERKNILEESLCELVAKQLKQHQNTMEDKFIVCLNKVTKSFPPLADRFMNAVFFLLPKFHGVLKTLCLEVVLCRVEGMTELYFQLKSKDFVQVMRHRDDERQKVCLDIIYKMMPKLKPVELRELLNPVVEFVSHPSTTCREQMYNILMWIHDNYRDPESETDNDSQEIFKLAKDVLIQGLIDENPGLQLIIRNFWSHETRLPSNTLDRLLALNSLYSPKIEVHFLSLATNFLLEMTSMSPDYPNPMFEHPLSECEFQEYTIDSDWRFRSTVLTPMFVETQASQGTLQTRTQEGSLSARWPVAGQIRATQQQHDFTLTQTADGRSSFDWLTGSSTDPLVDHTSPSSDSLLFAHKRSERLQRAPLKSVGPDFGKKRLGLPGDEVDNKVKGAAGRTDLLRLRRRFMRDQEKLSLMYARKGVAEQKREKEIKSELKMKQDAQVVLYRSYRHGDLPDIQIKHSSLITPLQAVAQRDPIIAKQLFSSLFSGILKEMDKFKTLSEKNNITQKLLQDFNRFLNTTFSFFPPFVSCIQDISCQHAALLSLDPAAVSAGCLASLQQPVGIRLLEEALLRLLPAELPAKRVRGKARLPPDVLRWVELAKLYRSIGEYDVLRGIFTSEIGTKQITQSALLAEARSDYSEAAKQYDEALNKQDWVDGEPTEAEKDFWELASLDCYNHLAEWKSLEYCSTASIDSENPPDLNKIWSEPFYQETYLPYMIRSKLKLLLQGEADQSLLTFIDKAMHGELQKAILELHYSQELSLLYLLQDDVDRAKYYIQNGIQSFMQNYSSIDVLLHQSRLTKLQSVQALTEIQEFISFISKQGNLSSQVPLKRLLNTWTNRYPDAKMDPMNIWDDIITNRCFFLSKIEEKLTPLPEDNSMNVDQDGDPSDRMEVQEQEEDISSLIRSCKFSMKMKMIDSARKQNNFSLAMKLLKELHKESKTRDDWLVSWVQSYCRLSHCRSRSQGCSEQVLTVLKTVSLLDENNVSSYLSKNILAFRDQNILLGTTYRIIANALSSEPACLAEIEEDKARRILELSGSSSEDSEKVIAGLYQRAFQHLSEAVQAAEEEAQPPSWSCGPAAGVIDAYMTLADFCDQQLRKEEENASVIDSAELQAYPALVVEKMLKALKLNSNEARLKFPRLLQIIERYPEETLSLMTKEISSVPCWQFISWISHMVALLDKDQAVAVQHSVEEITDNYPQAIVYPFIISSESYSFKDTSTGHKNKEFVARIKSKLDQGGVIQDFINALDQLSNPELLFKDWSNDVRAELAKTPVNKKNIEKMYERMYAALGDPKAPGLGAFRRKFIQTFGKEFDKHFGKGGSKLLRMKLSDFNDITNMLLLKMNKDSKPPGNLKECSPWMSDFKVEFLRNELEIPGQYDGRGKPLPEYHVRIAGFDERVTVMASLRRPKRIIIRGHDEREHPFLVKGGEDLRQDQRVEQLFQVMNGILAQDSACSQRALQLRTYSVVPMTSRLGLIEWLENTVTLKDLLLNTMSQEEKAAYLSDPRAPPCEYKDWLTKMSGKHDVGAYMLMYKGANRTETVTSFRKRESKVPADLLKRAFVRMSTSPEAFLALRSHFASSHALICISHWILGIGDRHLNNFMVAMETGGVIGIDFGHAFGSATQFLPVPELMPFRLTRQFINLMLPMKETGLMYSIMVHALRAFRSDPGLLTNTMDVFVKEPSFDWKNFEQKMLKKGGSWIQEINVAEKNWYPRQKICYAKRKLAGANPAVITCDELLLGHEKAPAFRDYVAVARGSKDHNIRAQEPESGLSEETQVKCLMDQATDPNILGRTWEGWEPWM

IC50, < 500 pM:
CN(C)CCCOc1ncc(-c2ccc3ncc4c(c3c2)C2(CC2)C(=O)N4C)cc1NS(=O)(=O)c1ccc(C(F)(F)F)cc1 [US12187742, Example 108]
CC(C)NCCOc1ncc(-c2ccc3ncc4c(c3c2F)C2(CCC2)C(=O)N4C)cc1NS(C)(=O)=O [US12187742, Example 556]
CN1C(=O)C2(CC2)c2c1cnc1ccc(-c3cnc(OCCCN4CCCC4)c(NS(=O)(=O)C4CC4)c3)cc21 [US12187742, Example 60]
CN1CC=C(c2ncc(-c3ccc4ncc5c(c4c3)C3(CCC3)C(=O)N5C)cc2NS(C)(=O)=O)CC1 [US12187742, Example 276]
COc1ncc(-c2ccc3ncc4c(c3c2)C2(CC2)C(=O)N4C)cc1NS(=O)(=O)c1cccc(C(C)O)c1 (configuration not stated) [US12187742, Example 18]
CN(C)CCCOc1ncc(-c2ccc3ncc4c(c3c2)C2(CC2)C(=O)N4C)cc1NS(=O)(=O)c1cccs1 [US12187742, Example 120]
CN(C)CCCOc1ncc(-c2ccc3ncc4c(c3c2)C2(CC2)C(=O)N4C)cc1NS(=O)(=O)c1cccnc1 [US12187742, Example 85]

Source: BindingDB's records for patent US12187742 (Xrad Therapeutics, 2025)
